From patent US10004730B2, “Small molecules targeting androgen receptor nuclear localization and/or level in prostate cancer” (University of Pittsburgh-Of the Commonwealth System of …, priority 2011, dated 2018)

Tests used:
[1] = system: endogenous AR; assay: Endogenous AR nuclear localization in C4-2 cells by immunofluorescence; type: cell-based; conditions: 300 nM, hormone-free
Protocol: (§1) FIGS. 3A and 3B. […] FIG. 3A. […] Localization was assessed by fluorescence microscopy 4 hours after treatment. FIG. 3B.
(§2) FIGS. 6A, 6B, 6C and 6D. FIG. 6A. Structures of compounds SID 14730725 (3-(4-Ethoxy-phenyl)-6,7-dihydro-5H-pyrrolo[1,2-a]imidazole), SID 14742211 (3-(4-Chloro-phenyl)-6,7-dihydro-5H-pyrrolo[1,2-a]imidazole) and SID 3712502 (2-[(3,5-dimethyl-1,2-oxazol-4-yl)methylsulfanyl]-1-[4-(2,3-dimethylphenyl)piperazin-1-yl]ethanone). FIG. 6B. Effect of SID 14730725 and SID 3712502 at indicated concentrations (uM) on nuclear localization of AR in castration-resistant C4-2 prostate cancer cells cultured in complete RPMI media with 10% FBS. C4-2 cells were transfected with GFP-AR and subcellular localization of GFP-AR was determined after overnight treatment using fluorescent microscopy. FIG. 6C. Quantitative analysis of results in FIG. 6B. The percent of transfected cells displaying predominant nuclear localization of GFP-AR at in the presence of various concentrations of SID 14730725 and SID 3712502 were determined. FIG. 6D. SID 14730725 inhibited endogenous AR nuclear localization in C4-2 cells. Endogenous AR was detected by immunofluorescent staining using AR antibody N-20 (Santa Cruz Biotechnology). Nuclei were stained with Hoechst.
(§3) Hsp90 plays an important role in ligand-induced AR nuclear translocation. […]

[2] = target: T1, GFP-AR (Homo sapiens, UniProt P10275); assay: Localization of transiently transfected GFP-AR by fluorescence microscopy; type: cell-based; conditions: for GFP-AR localization: 1 nM
T1 construct: expressed in transfected cells; also PC3 and LNCaP (transient)
T1 sequence (P10275 1-920): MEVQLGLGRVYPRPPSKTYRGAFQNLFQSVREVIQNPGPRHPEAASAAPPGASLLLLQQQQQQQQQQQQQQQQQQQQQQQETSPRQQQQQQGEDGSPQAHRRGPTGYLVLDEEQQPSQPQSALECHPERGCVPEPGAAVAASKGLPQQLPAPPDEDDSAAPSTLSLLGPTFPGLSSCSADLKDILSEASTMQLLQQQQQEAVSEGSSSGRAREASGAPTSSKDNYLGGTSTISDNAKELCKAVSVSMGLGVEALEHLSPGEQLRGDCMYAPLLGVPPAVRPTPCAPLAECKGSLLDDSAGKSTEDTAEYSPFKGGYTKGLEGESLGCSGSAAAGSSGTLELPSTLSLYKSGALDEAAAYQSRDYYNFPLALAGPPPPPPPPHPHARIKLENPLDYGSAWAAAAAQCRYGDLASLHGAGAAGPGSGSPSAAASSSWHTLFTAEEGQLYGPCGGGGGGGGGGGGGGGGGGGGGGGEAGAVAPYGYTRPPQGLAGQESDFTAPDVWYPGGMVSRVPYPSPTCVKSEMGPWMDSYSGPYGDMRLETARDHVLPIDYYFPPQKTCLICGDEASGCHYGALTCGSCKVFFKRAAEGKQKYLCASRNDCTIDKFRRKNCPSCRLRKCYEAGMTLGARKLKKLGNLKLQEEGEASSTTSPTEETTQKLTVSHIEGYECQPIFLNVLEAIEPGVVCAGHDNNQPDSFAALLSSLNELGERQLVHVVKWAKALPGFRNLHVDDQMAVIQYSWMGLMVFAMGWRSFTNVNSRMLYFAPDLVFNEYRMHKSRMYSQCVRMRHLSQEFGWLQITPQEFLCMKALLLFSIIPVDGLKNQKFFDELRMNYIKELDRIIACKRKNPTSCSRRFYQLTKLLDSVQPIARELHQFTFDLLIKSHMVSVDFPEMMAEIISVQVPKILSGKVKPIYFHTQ
Protocol: FIGS. 2A and 2B. Localization of GFP-AR in AR-negative PC3, androgen-sensitive LNCaP, and CRPC C4-2 cells. […] PC3, LNCaP, and C4-2 cells were transfected with GFP-AR and localization was assessed in ligand-free conditions or in the presence of mibolerone by fluorescence microscopy within 24 hours of transfection. The results in FIG. 2B are from five transfections for each cell line in the absence of androgen. At least 50 cells were counted after each transfection. Error bars represent ±SEM.
as §1
FIGS. 6A, 6B, 6C and 6D. FIG. 6A. […] FIG. 6B. […] C4-2 cells were transfected with GFP-AR and subcellular localization of GFP-AR was determined after overnight treatment using fluorescent microscopy. FIG. 6C. Quantitative analysis of results in FIG. 6B. […] FIG. 6D. […] Endogenous AR was detected by immunofluorescent staining using AR antibody N-20 (Santa Cruz Biotechnology). Nuclei were stained with Hoechst.
A prerequisite for AR transcriptional activity is its nuclear localization. To determine whether the subcellular localization of AR was altered during the progression to castration-resistance, AR-negative PC3 prostate cancer cells, androgen-sensitive LNCaP cells and castration-resistant C4-2 cells were transfected with AR tagged to green fluorescent protein (GFP) and localization was assessed by fluorescence microscopy in hormone-free conditions.
Hsp90 plays an important role in ligand-induced AR nuclear translocation. […] To determine if the effect of hsp90 inhibition on endogenous AR in C4-2 cells was similar to its effect on transfected GFP-AR, immunofluorescence experiments were performed.

[3] = target: T2, endogenous AR (Homo sapiens, UniProt P10275, T878A); assay: Endogenous AR nuclear localization in C4-2 cells by immunofluorescence; type: cell-based; conditions: AR antibody N-20
T2 construct: endogenous in cells; host or cells: C4-2
Protocol: as §1, §2, §3

[4] = target: T3, GFP-ER (Homo sapiens, UniProt P03372); assay: GFP-ER nuclear localization in transfected C4-2 cells; type: cell-based; conditions: 24 hours
T3 construct: expressed in transfected cells; host or cells: C4-2
Protocol: (§4) FIG. 7. The effect of SID 14730725 and SID 3712502 on nuclear localization of GFP-ER (Top panel) and GFP-GR (Bottom panel) in C4-2 cells. C4-2 cells were transfected with GFP-ER or GFP-GR overnight. The following day the cells were treated with different concentrations (uM) of the small molecules. The cells transfected with GFP-GR were co-treated with 0.5 μM Dexamethasone. Cells were imaged 24 hours after the treatment with the small molecules.

[5] = target: T4, GFP-GR (Homo sapiens, UniProt P04150); assay: GFP-GR nuclear localization in transfected C4-2 cells; type: cell-based; conditions: co-treated with 0.5 μM Dexamethasone, 24 hours
T4 construct: expressed in transfected cells; host or cells: C4-2
Protocol: as §4

[6] = system: PC3 cells; assay: Cell survival, crystal violet staining, PC3; type: cell-based; conditions: 48 hrs
Protocol: (§5) FIGS. 8A and 8B. Effect of SID 14730725 and SID 3712502 on survival of PC3 (FIG. 8A) and C4-2 cells (FIG. 8B). PC3 or C4-2 cells were plated in 12-well plates at 2,500 cell per well in RPMI 1640 complete medium. After 24 hrs, the cells were treated with SID 14730725 or SID 3712502 at the indicated concentrations for 48 hrs. The wells were washed with PBS thrice and fixed in 0.5% crystal Violet in methanol. C=control; treated with vehicle DMSO.

[7] = system: C4-2 cells; assay: Cell survival, crystal violet staining, C4-2; type: cell-based; conditions: 48 hrs
Protocol: as §5

[8] = system: castration resistant C4-2 xenograft tumors; assay: C4-2 xenograft tumors in castrated SCID mice; type: in vivo
Protocol: FIGS. 9A and 9B. FIG. 9A. SID 14730725 inhibits the growth of castration resistant C4-2 xenograft tumors. C4-2 tumors were established by sc injection of 1×10^6 cells resuspended in 0.25 ml RPMI complete media mixed with 0.25 ml of Matrigel into young adult male SCID mice. SCID mice were castrated and randomized when C4-2 tumor volume reach ˜200 ul. Mice received s.c. delivery of SID 14730725 (50 mg/Kg body weight) or vehicle control (corn oil) every other day for 2 weeks, beginning 4 days after castration. Each group consisted of 7 mice. Tumor volumes were measured using micro-calipers and calculated using the formula (length×width^2)/2. FIG. 9B. Body weight of animals was measured every other day. Bars represent the mean±SEM; **p<0.01; Red lines represent data from the animals treated with SID 14730725.

[9] = target: T1, GFP-AR; assay: GFP-AR localization in stably transfected C4-2-GFP-AR sublines / high throughput screen assay; type: cell-based; conditions: 5 uM, 24 hours; C4-2 stably transfected with GFP-AR; charcoal-stripped FBS medium
Protocol: The images were acquired 24 hours after the treatment of docetaxel at 5 uM or vehicle DMSO. C4-2 cells stably transfected with GFP-AR were changed to phenol red-free RPMI with 10% charcoal-stripped FBS medium before the addition of docetaxel. Nuclei of the cells were stained with Hoechst dye. Images were acquired by fluorescent microscopy.
Localization of GFP-AR signal was assessed by fluorescence microscopy overnight after treatment.
The C4-2-GFP-AR subclone was cultured in 384-well plates in complete RPMI media. We used regular complete media in high throughput assay because it contains castration levels of androgens. […] Images of GFP signals and Hoechst signals were acquired into separate channels on a Cellomics ArrayScan® V^TI system. Both nuclear and cytoplasmic GFP signals were quantified with the ArrayScan V^TI, which uses an image-based auto-focus system, and has the capability of imaging up to six excitation and emission channels. […] The Cellomics compartmental analysis algorithm was used to quantify the relative distribution of the GFP-AR between nuclear and cytoplasmic cellular compartments. […] The mask was eroded to reduce cytoplasmic contamination within the nuclear area, and the reduced mask was used to quantify the amount of target channel GFP fluorescence within the nucleus. […]

[10] = target: AR (Homo sapiens, UniProt P10275); conditions: reported in earlier studies; cited from earlier work

T3 sequence (P03372 whole entry): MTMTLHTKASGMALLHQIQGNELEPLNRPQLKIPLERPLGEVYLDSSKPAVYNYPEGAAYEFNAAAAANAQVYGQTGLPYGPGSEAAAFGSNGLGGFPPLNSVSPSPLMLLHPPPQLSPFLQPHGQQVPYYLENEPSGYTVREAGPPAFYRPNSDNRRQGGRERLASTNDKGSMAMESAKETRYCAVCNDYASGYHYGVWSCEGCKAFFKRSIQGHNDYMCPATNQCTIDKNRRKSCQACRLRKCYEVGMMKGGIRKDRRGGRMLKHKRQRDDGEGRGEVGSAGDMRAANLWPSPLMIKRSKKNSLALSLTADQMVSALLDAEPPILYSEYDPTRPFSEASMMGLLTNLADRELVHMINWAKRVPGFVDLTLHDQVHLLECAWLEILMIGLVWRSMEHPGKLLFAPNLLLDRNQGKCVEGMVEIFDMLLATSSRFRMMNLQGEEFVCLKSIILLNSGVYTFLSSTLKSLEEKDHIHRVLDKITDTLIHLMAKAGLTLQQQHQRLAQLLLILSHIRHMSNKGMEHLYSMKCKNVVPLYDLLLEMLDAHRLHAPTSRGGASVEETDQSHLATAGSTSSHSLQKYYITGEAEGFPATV
T2 sequence (P10275 whole entry T878A): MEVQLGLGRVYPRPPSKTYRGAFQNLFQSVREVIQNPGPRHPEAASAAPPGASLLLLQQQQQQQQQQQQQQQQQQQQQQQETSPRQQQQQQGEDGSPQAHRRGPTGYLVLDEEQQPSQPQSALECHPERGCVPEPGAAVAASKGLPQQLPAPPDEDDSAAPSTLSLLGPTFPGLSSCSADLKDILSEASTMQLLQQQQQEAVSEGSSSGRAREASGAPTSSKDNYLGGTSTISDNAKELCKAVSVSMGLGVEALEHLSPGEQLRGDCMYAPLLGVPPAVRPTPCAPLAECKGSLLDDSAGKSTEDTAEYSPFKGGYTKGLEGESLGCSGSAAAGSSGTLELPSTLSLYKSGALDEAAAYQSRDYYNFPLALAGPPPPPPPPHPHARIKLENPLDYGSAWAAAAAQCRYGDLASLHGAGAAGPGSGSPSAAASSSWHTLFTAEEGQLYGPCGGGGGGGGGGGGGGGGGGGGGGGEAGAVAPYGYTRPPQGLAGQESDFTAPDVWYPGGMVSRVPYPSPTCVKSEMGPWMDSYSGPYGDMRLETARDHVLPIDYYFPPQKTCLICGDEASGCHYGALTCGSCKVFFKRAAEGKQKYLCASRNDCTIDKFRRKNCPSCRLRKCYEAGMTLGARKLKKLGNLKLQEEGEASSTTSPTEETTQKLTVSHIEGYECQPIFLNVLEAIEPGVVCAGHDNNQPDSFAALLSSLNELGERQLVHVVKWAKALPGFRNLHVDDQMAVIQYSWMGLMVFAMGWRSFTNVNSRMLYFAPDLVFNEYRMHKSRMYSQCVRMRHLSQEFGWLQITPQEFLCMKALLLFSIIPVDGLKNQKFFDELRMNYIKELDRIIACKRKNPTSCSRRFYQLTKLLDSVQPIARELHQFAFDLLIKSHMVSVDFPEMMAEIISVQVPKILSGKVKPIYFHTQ
T4 sequence (P04150 whole entry): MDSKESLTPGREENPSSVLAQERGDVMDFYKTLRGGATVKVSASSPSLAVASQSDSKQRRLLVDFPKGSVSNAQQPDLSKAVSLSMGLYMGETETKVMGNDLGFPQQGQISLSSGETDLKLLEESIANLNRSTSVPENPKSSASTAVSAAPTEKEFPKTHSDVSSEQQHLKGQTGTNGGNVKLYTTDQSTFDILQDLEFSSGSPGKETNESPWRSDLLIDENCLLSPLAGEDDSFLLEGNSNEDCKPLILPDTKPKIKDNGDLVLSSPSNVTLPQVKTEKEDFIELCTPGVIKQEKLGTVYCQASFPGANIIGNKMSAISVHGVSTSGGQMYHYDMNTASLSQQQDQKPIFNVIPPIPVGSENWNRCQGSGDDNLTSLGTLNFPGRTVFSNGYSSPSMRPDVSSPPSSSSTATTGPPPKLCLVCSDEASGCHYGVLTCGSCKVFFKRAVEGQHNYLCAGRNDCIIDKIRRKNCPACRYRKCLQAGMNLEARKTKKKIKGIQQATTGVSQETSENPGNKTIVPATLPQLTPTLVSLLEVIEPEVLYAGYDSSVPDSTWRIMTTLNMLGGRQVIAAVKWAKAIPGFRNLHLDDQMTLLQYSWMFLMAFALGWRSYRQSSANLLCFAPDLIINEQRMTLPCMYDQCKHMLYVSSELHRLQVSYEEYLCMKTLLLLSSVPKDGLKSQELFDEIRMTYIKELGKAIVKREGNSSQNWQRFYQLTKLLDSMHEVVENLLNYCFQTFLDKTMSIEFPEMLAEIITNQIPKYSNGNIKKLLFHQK

## C=CCNC1=C2C[C@@H](C)C[C@H](OC)[C@H](O)[C@@H](C)/C=C(\C)[C@H](OC(N)=O)[C@@H](OC)/C=C\C=C(/C)C(=O)NC(=CC1=O)C2=O [17-AAG, reference compound]
[1]
  endogenous AR nuclear expression: a decrease in nuclear AR expression was observed

## CCOc1ccc(-c2cnc3n2CCC3)cc1 [SID 14730725, 3-(4-Ethoxy-phenyl)-6,7-dihydro-5H-pyrrolo[1,2-a]imidazole]
[2]; absence or very low levels of androgens
  blocking AR nuclear localization, dependence on androgen level: more effective in blocking AR nuclear localization in the absence or in the presence of very low levels of androgens
[2]; transfected C4-2 cells, complete RPMI with 10% FBS, overnight treatment
  GFP-AR nuclear localization: effectively inhibited
[3]
  endogenous AR nuclear localization: inhibited
[4]
  localization of GFP-ER: no effect
[5]
  localization of GFP-GR: no effect
[6]
  cytotoxicity: little or no cytotoxicity
[7]
  cytotoxicity: little or no cytotoxicity
[8]; 50 mg/Kg s.c. every other day
  body weight of injected mice: did not affect the body weight
[8]; 50 mg/Kg s.c. every other day for 2 weeks, castrated SCID mice
  growth of C4-2 xenograft tumor: able to inhibit the growth of a C4-2 xenograft tumor with statistical significance

## CC(=O)O[C@@]12CO[C@@H]1C[C@H](O)[C@@]1(C)C(=O)[C@H](O)C3=C(C)[C@@H](OC(=O)[C@H](O)[C@@H](NC(=O)OC(C)(C)C)c4ccccc4)C[C@@](O)([C@@H](OC(=O)c4ccccc4)[C@H]21)C3(C)C [docetaxel]
[9]
  AR nuclear localization in castration-resistant C4-2 cells: no significant effect
[10]
  AR nuclear translocation: can inhibit androgen-dependent AR nuclear translocation

## C[C@@H]1CC2=CC(=O)CC[C@@H]2[C@H]2CC[C@@]3(C)[C@@H](CC[C@]3(C)O)[C@@H]21 [mibolerone]
[2]; C4-2 cells
  GFP-AR localization: induced complete nuclear localization
[2]; LNCaP cells
  GFP-AR localization: induced complete nuclear localization
[2]; PC3 cells
  GFP-AR localization: induced complete nuclear localization

## C[C@@H]1C[C@H]2O[C@@H]2/C=C\C=C\C(=O)Cc2c(Cl)c(O)cc(O)c2C(=O)O1 [radicicol]
[2]; C4-2 cells, data not shown
  nuclear localization of GFP-AR: prevented
